According to patent US8846719B2, “Isoxazolo-pyridine derivatives” (Roche Palo Alto LLC, priority 2007, dated 2014):

Molecular target: human GABA A receptor α5β3γ2 (Homo sapiens (Human), UniProt P18507+P31644)
Assay: [3H]flumazenil competition binding assay, human GABA A α5β3γ2 receptors expressed in HEK293 cells
Settings: human receptor; displacement of [3H]flumazenil (0.5 nM); means of two determinations; read-out: hKi GABAAa5
In short: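 Ki values, each the mean of two runs, derive from displacement of [3H]flumazenil from human α5β3γ2 GABA A receptors transiently expressed in HEK293 membranes. Binding ran 1 h at 4° C in Krebs-tris, pH 7.5, before filter harvest and scintillation counting.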

Structure (SMILES) | Ki
C[C@H](NC(=O)c1ccc(OCc2conc2-c2ccc(Cl)cc2)nc1)C(F)(F)F [Example 357, 6-[3-(4-Chloro-phenyl)-isoxazol-4-ylmethoxy]-N—((S)-2,2,2-trifluoro-1-methyl-ethyl)-nicotinamide] | ~20 nM
O=C(NC1CCOCC1)c1ccc(OCc2conc2-c2ccccn2)nc1 [Example 358, 6-(3-Pyridin-2-yl-isoxazol-4-ylmethoxy)-N-(tetrahydro-pyran-4-yl)-nicotinamide] | 17.8 nM
CC(C)NC(=O)c1ccc(OCc2conc2-c2ccccn2)nc1 [Example 359, N-Isopropyl-6-(3-pyridin-2-yl-isoxazol-4-ylmethoxy)-nicotinamide] | 13.1 nM
O=C(NC1CC1)c1ccc(OCc2conc2-c2ccccn2)nc1 [Example 360, N-Cyclopropyl-6-(3-pyridin-2-yl-isoxazol-4-ylmethoxy)-nicotinamide] | 18.9 nM
O=C(NCC1CC1)c1ccc(OCc2conc2-c2ccccn2)nc1 [Example 361, N-Cyclopropylmethyl-6-(3-pyridin-2-yl-isoxazol-4-ylmethoxy)-nicotinamide] | 19 nM
O=C(NCC(F)(F)F)c1ccc(OCc2conc2-c2ccccn2)nc1 [Example 362, 6-(3-Pyridin-2-yl-isoxazol-4-ylmethoxy)-N-(2,2,2-trifluoro-ethyl)-nicotinamide] | 8 nM
O=C(NCCO)c1ccc(OCc2conc2-c2ccccn2)nc1 [Example 363, N-(2-Hydroxy-ethyl)-6-(3-pyridin-2-yl-isoxazol-4-ylmethoxy)-nicotinamide] | 19.9 nM
CCNC(=O)c1ccc(OCc2conc2-c2ccccn2)nc1 [Example 364, N-Ethyl-6-(3-pyridin-2-yl-isoxazol-4-ylmethoxy)-nicotinamide] | 13.6 nM
O=C(NC1CCOCC1)c1ccc(OCc2conc2-c2ccc(F)cn2)nc1 [Example 365, 6-[3-(5-Fluoro-pyridin-2-yl)-isoxazol-4-ylmethoxy]-(tetrahydro-pyran-4-yl)-nicotinamide] | 8 nM
CC(C)NC(=O)c1ccc(OCc2conc2-c2ccc(F)cn2)nc1 [Example 366, 6-[3-(5-Fluoro-pyridin-2-yl)-isoxazol-4-ylmethoxy]-isopropyl-nicotinamide] | 6.8 nM
O=C(NC1CC1)c1ccc(OCc2conc2-c2ccc(F)cn2)nc1 [Example 367, Cyclopropyl-6-[3-(5-fluoro-pyridin-2-yl)-isoxazol-4-ylmethoxy]-nicotinamide] | 13.5 nM
CC(C)(CO)NC(=O)c1ccc(OCc2conc2-c2ccc(F)cn2)nc1 [Example 368, 6-[3-(5-Fluoro-pyridin-2-yl)-isoxazol-4-ylmethoxy]-(2-hydroxy-1,1-dimethyl-ethyl)-nicotinamide] | 44.9 nM
O=C(NCC(F)(F)F)c1ccc(OCc2conc2-c2ccc(F)cn2)nc1 [Example 369, 6-[3-(5-Fluoro-pyridin-2-yl)-isoxazol-4-ylmethoxy]-(2,2,2-trifluoro-ethyl)-nicotinamide] | 9.3 nM
O=C(NCCO)c1ccc(OCc2conc2-c2ccc(F)cn2)nc1 [Example 370, 6-[3-(5-Fluoro-pyridin-2-yl)-isoxazol-4-ylmethoxy]-(2-hydroxy-ethyl)-nicotinamide] | 21.4 nM
CCNC(=O)c1ccc(OCc2conc2-c2ccc(F)cn2)nc1 [Example 371, Ethyl-6-[3-(5-fluoro-pyridin-2-yl)-isoxazol-4-ylmethoxy]-nicotinamide] | 14.1 nM
CNC(=O)c1ccc(OCc2conc2-c2ccc(F)cn2)nc1 [Example 372, 6-[3-(5-Fluoro-pyridin-2-yl)-isoxazol-4-ylmethoxy]-methyl-nicotinamide] | 18.5 nM
